# ChEMBL document CHEMBL5385848, “Discovery of novel hydroxyamidine based indoleamine 2,3-dioxygenase 1 (IDO1) and thioredoxin reductase 1 (TrxR1) dual inhibitors” (Eur J Med Chem, 2023)
# Calls of active or inactive are those of the source. No cut-off for these calls is given here.
# Assays:
# [1] = biological target: T1, Thioredoxin reductase 1, cytoplasmic (Rattus norvegicus, UniProt O89049); test: Inhibition of recombinant rat TrxR1 incubated for 1 hr in presence of NADPH by microplate reader analysis
# T1 sequence (O89049 whole entry): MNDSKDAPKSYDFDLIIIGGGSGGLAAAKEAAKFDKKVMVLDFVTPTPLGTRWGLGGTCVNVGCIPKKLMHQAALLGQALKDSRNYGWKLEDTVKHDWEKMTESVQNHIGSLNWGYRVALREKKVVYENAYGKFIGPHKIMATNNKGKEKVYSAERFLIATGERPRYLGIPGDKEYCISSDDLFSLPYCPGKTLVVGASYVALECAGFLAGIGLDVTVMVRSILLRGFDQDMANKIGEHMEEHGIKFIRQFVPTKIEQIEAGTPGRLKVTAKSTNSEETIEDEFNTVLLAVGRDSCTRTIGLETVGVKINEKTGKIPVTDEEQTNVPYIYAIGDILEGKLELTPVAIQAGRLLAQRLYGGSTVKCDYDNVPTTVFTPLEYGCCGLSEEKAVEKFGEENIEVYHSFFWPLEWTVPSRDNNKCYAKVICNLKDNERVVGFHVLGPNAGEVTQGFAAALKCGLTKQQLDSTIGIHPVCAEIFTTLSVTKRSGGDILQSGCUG
# HCT-116 = test: Antiproliferative activity against human HCT-116 cells assessed as cell growth inhibition incubated for 48 hrs by CCK-8 assay; format: functional, cell-based; settings: HCT-116, 48 h
# [2] = biological target: Indoleamine 2,3-dioxygenase 1 (Homo sapiens, UniProt P14902); test: Inhibition of recombinant human IDO1 using L-Trp as substrate incubated for 1 hr
# Chain of Indoleamine 2,3-dioxygenase 1 (P14902 whole entry): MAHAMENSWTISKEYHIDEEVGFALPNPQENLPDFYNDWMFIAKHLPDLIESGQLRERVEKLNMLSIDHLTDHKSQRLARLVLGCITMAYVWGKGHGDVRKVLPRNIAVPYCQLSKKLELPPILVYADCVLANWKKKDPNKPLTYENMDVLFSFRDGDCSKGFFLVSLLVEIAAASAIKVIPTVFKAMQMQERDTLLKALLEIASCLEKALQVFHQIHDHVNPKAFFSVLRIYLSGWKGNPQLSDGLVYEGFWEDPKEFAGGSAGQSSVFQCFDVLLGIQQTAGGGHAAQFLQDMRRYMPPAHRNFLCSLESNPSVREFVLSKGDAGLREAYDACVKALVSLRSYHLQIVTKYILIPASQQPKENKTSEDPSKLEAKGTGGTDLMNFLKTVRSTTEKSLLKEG
# [3] = biological target: T2, Thioredoxin reductase 1, cytoplasmic (Homo sapiens) (UniProt Q16881); test: Inhibition of TrxR1 in human HeLa cells incubated for 24 hrs; format: cell-based
# T2 sequence (whole entry): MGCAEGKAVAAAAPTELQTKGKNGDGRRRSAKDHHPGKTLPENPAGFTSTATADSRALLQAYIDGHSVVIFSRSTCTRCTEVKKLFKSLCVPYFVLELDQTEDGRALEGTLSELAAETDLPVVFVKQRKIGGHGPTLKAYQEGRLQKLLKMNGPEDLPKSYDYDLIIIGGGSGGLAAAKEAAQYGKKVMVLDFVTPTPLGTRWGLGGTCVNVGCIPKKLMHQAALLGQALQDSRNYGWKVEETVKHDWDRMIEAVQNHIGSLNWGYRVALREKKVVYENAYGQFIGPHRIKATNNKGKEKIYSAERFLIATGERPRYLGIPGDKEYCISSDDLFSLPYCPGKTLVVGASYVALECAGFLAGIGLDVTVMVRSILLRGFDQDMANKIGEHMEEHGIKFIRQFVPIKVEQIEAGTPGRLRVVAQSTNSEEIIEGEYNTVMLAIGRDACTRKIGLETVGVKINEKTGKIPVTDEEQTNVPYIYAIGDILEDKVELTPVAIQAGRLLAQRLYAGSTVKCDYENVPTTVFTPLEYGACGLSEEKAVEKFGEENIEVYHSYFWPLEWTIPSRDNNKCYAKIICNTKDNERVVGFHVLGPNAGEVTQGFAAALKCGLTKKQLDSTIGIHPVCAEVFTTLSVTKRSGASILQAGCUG
# [4] = biological target: T2, Thioredoxin reductase 1, cytoplasmic (Homo sapiens); test: Inhibition of TrxR1 in human HCT-116 cells incubated for 24 hrs; format: cell-based
# [5] = biological target: T3, Thioredoxin reductase 1, cytoplasmic (Mus musculus) (UniProt Q9JMH6); test: Inhibition of TrxR1 in mouse CT26 cells incubated for 24 hrs; format: cell-based
# T3 sequence (whole entry): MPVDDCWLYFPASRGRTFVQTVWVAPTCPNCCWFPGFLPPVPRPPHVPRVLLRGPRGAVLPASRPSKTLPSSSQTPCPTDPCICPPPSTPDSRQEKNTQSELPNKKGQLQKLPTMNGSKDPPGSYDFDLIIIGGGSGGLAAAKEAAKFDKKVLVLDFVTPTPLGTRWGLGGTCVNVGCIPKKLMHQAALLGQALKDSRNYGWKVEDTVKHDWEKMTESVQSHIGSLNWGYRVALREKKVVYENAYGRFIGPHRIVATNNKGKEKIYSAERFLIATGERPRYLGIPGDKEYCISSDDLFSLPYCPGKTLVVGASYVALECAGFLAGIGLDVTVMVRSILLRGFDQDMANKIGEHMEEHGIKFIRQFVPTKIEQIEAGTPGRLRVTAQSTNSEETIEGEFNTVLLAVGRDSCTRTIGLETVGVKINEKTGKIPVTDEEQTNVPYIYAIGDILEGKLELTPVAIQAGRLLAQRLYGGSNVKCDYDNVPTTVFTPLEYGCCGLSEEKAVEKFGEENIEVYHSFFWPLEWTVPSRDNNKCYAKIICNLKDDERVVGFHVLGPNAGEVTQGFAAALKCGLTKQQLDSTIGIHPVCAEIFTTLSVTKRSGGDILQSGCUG
# [6] = biological target: Indoleamine 2,3-dioxygenase 1 (Mus musculus) (UniProt P28776); test: In vivo inhibition of IDO1 in C57BL/6 mouse assessed as reduction in plasma Kyn level at 60 mg/kg, po administered once daily by LC-MS/MS analysis; format: functional, organism-based
# Chain of Indoleamine 2,3-dioxygenase 1 (Mus musculus) (P28776 whole entry, looked up): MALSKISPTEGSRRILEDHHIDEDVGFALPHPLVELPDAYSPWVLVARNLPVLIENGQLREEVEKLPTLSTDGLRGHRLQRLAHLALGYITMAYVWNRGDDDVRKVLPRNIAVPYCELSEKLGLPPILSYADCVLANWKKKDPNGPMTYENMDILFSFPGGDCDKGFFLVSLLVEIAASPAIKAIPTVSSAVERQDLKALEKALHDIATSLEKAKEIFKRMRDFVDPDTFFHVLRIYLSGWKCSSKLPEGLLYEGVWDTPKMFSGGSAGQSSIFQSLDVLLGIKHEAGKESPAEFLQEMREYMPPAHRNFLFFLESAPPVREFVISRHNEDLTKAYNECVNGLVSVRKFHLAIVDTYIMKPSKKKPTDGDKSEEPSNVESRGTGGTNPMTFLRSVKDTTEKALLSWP
# [7] = biological target: Indoleamine 2,3-dioxygenase 1 (Mus musculus) (UniProt P28776); test: In vivo inhibition of IDO1 in C57BL/6 mouse assessed as increase in plasma Trp level at 60 mg/kg, po administered once daily by LC-MS/MS analysis; format: functional, organism-based
# [8] = biological target: Indoleamine 2,3-dioxygenase 1 (Mus musculus) (UniProt P28776); test: In vivo inhibition of IDO1 in C57BL/6 mouse assessed as reduction in plasma Kyn/Trp ratio at 60 mg/kg, po administered once daily by LC-MS/MS analysis; format: functional, organism-based
# CT26 [9] = test: Antitumor activity against mouse CT26 cells implanted in […] BALB/c mouse assessed as increase in CD8 T lymphocytes at 60 mg/kg, ig administered daily for 28 days and measured every 4 days; format: functional, organism-based; settings: time 28.0 day
# CT26 [10] = test: Antitumor activity against mouse CT26 cells implanted in […] BALB/c mouse assessed as increase in CD4 Th lymphocytes at 60 mg/kg, ig administered daily for 28 days and measured every 4 days; format: functional, organism-based; settings: time 28.0 day
# CT26 [11] = test: Antitumor activity against mouse CT26 cells implanted in athymic nude BALB/c mouse assessed as reduction in CD4+CD25+Foxp3+ lymphocytes at 60 mg/kg, ig administered daily for 28 days and measured every 4 days by immunofluorescence analysis; format: functional, organism-based; settings: time 28.0 day
# CT26 [12] = test: Antitumor activity against mouse CT26 cells implanted in […] BALB/c mouse assessed as reduction in nTreg lymphocytes at 60 mg/kg, ig administered daily for 28 days and measured every 4 days by immunofluorescence analysis; format: functional, organism-based; settings: time 28.0 day
# CT26 [13] = test: Antitumor activity against mouse CT26 cells implanted in athymic nude BALB/c mouse assessed as reduction in proliferative nTreg lymphocytes at 60 mg/kg, ig administered daily for 28 days and measured every 4 days by immunofluorescence analysis; format: functional, organism-based; settings: time 28.0 day
# [14] = Cytotoxicity against human HeLa cells incubated for 48 hrs by CCK-8 assay; format: toxicity, cell-based
# [15] = Cytotoxicity against mouse CT26 cells incubated for 48 hrs by CCK-8 assay; format: toxicity, cell-based
# [16] = Cytotoxicity against human HCT-116 cells incubated for 48 hrs by CCK-8 assay; format: toxicity, cell-based
# [17] = biological target: T4, Indoleamine 2,3-dioxygenase 2 (Homo sapiens, UniProt Q6ZQW0); test: Inhibition of IDO2 (unknown origin) using D-Trp as substrate incubated for 1 hr
# T4 sequence (Q6ZQW0 whole entry): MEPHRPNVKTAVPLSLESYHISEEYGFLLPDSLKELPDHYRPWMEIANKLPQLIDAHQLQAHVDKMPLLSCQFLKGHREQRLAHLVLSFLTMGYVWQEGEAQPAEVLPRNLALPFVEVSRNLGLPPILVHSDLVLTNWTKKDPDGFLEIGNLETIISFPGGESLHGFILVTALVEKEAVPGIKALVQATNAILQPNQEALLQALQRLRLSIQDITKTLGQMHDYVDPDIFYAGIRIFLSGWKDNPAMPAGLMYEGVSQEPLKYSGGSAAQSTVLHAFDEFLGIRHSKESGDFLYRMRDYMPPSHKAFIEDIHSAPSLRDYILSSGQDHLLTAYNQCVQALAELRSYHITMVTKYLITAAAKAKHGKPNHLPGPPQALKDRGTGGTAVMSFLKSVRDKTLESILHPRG
# [18] = Toxicity in athymic nude BALB/c mouse assessed as weight gain at 60 mg/kg, ig administered daily for 28 days and measured every 4 days; format: organism-based; settings: in vivo, po, 672 h, time 28 day
IC50 [1] [µM],IC50 (HCT-116) [µM],IC50 [2] [µM],SMILES,also measured
3.69,5.25,0.12,O=C(Cc1cccc(OC(F)(F)F)c1)Nc1nnc(CCCNc2nonc2/C(=N\O)Nc2ccc(F)c(Br)c2)s1,
25.2,5.59,13.2,O=C(Cc1ccccc1)Nc1nnc(CCCNc2nonc2/C(=N\O)NCCc2ccc(F)cc2)s1,
6.46,4.65,7.88,O=C(Cc1ccccc1)Nc1nnc(CCCNc2nonc2/C(=N\O)NCCc2ccc(Cl)cc2)s1,
3.74,5.98,0.06,O=C(Cc1ccccc1)Nc1nnc(CCCNc2nonc2/C(=N\O)Nc2ccc(F)c(Br)c2)s1,

# The remaining lines, values behind:
SMILES,IC50 [1] [µM],IC50 (HCT-116) [µM],IC50 [2] [µM],also measured
O=C(Cc1cccc(OC(F)(F)F)c1)Nc1nnc(CCCNc2nonc2/C(=N\O)NCCc2ccc(Cl)cc2)s1,7.63,3.79,17.5,
O=C(Cc1ccc(O)cc1)Nc1nnc(CCCNc2nonc2/C(=N\O)NCCc2ccc(Cl)cc2)s1,1.96,4.42,10.3,
NS(=O)(=O)NCCNc1nonc1/C(=N/O)Nc1ccc(F)c(Br)c1,,,,inhibition [3]: inactive; inhibition [4]: inactive; inhibition [5]: inactive; Activity [6]: Active; Activity [7]: Active; Activity [8]: Active; Activity (CT26 [9]): Active; Activity (CT26 [10]): Active; Activity (CT26 [11]): Active; Activity (CT26 [12]): Active; Activity (CT26 [13]): Active
O=C(Cc1ccc(O)cc1)Nc1nnc(CCCNc2nonc2/C(=N\O)NCCc2ccc(Br)cc2)s1,18.3,4.62,10.1,
O=C(Cc1cccc(OC(F)(F)F)c1)Nc1nnc(CCCNc2nonc2/C(=N\O)NCCc2ccc(Br)cc2)s1,10.5,3.1,5.58,
NS(=O)(=O)NCCNc1nonc1C(=NO)Nc1ccc(F)c(Br)c1 [EPACADOSTAT],,,,IC50 at 48 h [14]: 4.63 µM; IC50 at 48 h [15]: 1.49 µM; IC50 at 48 h [16]: 0.26 µM; IC50 [17]: 0.63 µM; Activity [18]: Toxic
O=C(Cc1ccc(O)cc1)Nc1nnc(CCCNc2nonc2/C(=N\O)NCCc2ccc(F)cc2)s1,13.5,5.31,4.37,
